In patent publication US20040220249A1, “Prevention of surgical adhesions using selective COX-2 inhibitors” (Children's Medical Center Corporation, priority 2003, published 2004):

Tests used:
adhesions = settings: cited from earlier work
[1] = system: intra-abdominal adhesion formation; experiment: Intra-abdominal adhesion model (laparotomy, cecal abrasion, silicone patch), adhesion score; assay type: in vivo, mice (C57BL/6); settings: for intra-abdominal adhesion score (total, 0-16): 10 days after surgery, oral treatment for 10 days from day of surgery, mean +/- SEM, control 13.6+/-0.49; for decrease of intra-abdominal adhesion formation: FIG. 2, versus control mice; for intra-abdominal adhesion score (total, 0-16), durability: treated for 10 days, observed an additional 25 days before sacrifice (day 35), control 13.4+/-1.0
Experimental: Seven to eight week-old male C57BL/6 mice (Jackson Laboratories, Bar Harbor, Me.) were housed five animals to a cage in a barrier room. Mice were acclimated to their environment for at least 72 hours prior to the initiation of each experiment and allowed food and water ad libitum. Animal protocols complied with the NIH Animal Research Advisory Committee guidelines and were approved by the Children's Hospital Institutional Animal Care and Use Committee. A standard adhesion model was performed as previously described (Chiang 2000). Specifically, a 5.0 mm×5.0 mm square piece of sterile silicone (Dow Corning, Midland, Mich.) was secured intra-abdominally to the right abdominal wall, lateral to the epigastric vessels, with two 7-0 proline sutures under isoflurane anesthesia. The cecum then was gently rubbed with two cotton swabs to promote adhesion formation.
After recovering from anesthesia, groups of mice were treated with either oral methylcellulose alone (100 μl, control) or an experimental drug mixed in 100 μl methylcellulose beginning on the day of surgery for 10 days. […] Mice treated with COX-2 selective inhibitors received either celecoxib (68 mg/kg orally twice a day) or rofecoxib (40 mg/kg orally once a day) (Laudanno 2001).
Ten and 35 days after surgery, mice were euthanized and adhesion formation over the silicone patch was measured by two blinded individuals based on a previously described scoring system (Chiang S, et al. J Ped Surg. 2000, 35, 189-196). The tenacity, type, and extent of adhesions to the patch, as well as the extent of adhesions to the cecum were graded on a scale of 0 to 4. The total adhesion score was the sum of the four individual scores (see table 1, below). A minimum score was 0 and the maximum score was 16. Tenacity was rated as none (0), adhesions fell apart (1), lysed with traction (2), lysed with blunt dissection (3), lysed with sharp dissection (4). Type was scored as none (0), filmy (1), mildly dense (2), moderately dense (3), very dense (4). Extent was measured as the percent of the patch covered by adhesion: 0% (0), <25% (1), 25-50% (2), 50-75% (3), >75% (4). Cecal adhesions were graded as none (0), adhesions fell apart (1), lysed with traction (2), lysed with blunt dissection (3), lysed with sharp dissection (4).

[2] = system: endothelium (CD31/PECAM-1) of granulation tissue; experiment: Microvessel density of granulation tissue surrounding the silicone patch (CD31 immunostaining, image analysis); assay type: in vivo, mice (C57BL/6); settings: day 10; CD31-stained area as proportion of total area; mean ± SEM; control 6.4±0.6
Experimental: Silicone patches and abdominal wall were fixed at 4 degrees Celsius in 10% formalin overnight and washed with phosphate buffered saline. The specimens were then embedded in paraffin and 5 micron sections were cut. Endothelial cells were identified by antibody staining against the endothelial cell surface antigen CD31 (PECAM-1) and a diaminobenzidine chromogen (BD Biosciences Pharmingen, San Diego, Calif.). After deparaffinization and rehydration, sections were incubated with proteinase K (Roche, Basel, Switzerland) for 30 min at 37° C. Non-specific binding sites were blocked for 30 min at room temperature with TNB blocking buffer (NEN Life Sciences, Boston, Mass.). Primary CD31 antiserum (Pharmingen) was added to the sections overnight at 4° C. Slides were washed twice with phosphate buffered saline and secondary goat anti-mouse IgG antibody (Vector Laboratories, Burlingame, Calif.) was then added for 30 min at room temperature. After again washing twice with PBS the slides were incubated with streptavidin alkaline phosphatase solution (1:100) (Perkin-Elmer Life Sciences, Boston, Mass.) for 30 min at room temperature followed by biotinyl tyramide amplification dilutent (1:50) (Perkin-Elmer Life Sciences) for 10 min. After repeat incubation with alkaline phosphatase solution (1:100), for 30 min at room temperature, the chromagen, Vector Novar substrate kit (Vector Laboratories) was added. Slides were lightly counterstained with hematoxylin for imaging.
Sections were taken from the abdominal wall, patch, and lesions at sacrifice on day 10. To quantitate vessel density, CD31 immunostained sections underwent digital image analysis using a Nikon Eclipse TE300 inverting photomicroscope with an attached Spot RT (Diagnostic Instruments Inc.) video camera linked to a personal computer. Images were imported directly to the image analysis program IP Lab (Scanalytics Inc., Fairfax, Va.). Sequential images were grabbed at 200× for the […] sections without overlapping. To calculate the volume fraction of stained regions, a color threshold was chosen for each image that distinguished between the stained areas and background. The proportion of the selected color was calculated as a percentage of total area and used as a measure of vessel density. Sections from 3 different mice for each of the study groups were examined and vascularization was scanned and quantified in 5 representative fields per section.

SMILES | side-effects (adhesions; literature) | inhibition of adhesions (adhesions; murine model (Chiang 2001)) | macroscopic adhesion formation over the silicone patch (photograph) ([1]; 10 days after laparotomy, cecal abrasions and silicone patch placement, FIG. 1) | intra-abdominal adhesion score (total, 0-16) [1] | decrease of intra-abdominal adhesion formation [1] | intra-abdominal adhesion score (total, 0-16), durability [1] | microvessel density of granulation tissue surrounding the silicone patch [2]
CO[C@@H]1[C@H](OC(=O)NC(=O)CCl)CC[C@]2(CO2)[C@H]1[C@@]1(C)O[C@@H]1CC=C(C)C [TNP-470] | absence of healing of abdominal wounds | inhibit adhesions |  |  |  |  | 
CC(=O)Oc1ccccc1C(=O)O [aspirin] |  |  | dense adhesion formation over the silicone patch | 13.8+/−0.4 | no effect | 12.2+/−1.2 | 13.3±1.0
Cc1ccc(-c2cc(C(F)(F)F)nn2-c2ccc(S(N)(=O)=O)cc2)cc1 [celecoxib] |  |  |  | 1.36+/−0.5 | 74% | 1.5+/−0.9 | 3.8±0.8
CC(C)Cc1ccc(C(C)C(=O)O)cc1 (stereo not shown) [ibuprophen] |  |  |  | 7.8+/−1.4 |  |  | 9.9±1.1
COc1ccc2c(c1)c(CC(=O)O)c(C)n2C(=O)c1ccc(Cl)cc1 [indomethacin] |  |  |  | 7.3+/−1.7 |  |  | 11.3±1.5
COc1ccc2cc([C@H](C)C(=O)O)ccc2c1 [naproxen] |  |  |  | 8.4+/−2.2 |  |  | 
CS(=O)(=O)c1ccc(C2=C(c3ccccc3)C(=O)OC2)cc1 [rofecoxib] |  |  |  | 3.6+/−1.1 | 91% |  | 7.9±0.6
